Measurements published in publication PMC6386544 (Infection and Immunity, 2019).
Like-named read-outs stand apart in the source and are kept apart here.

Key:
ToxB-GT [1] = biological target: T1, ToxB-GT (Clostridioides difficile, UniProt P18177); conditions: glycan 160 nM to 100 μM
T1 construct: gene tcdB

ToxA-B3 [2] = biological target: T2, ToxA-B3 (Clostridioides difficile, UniProt P16154); conditions: glycan 160 nM to 100 μM
T2 construct: gene tcdA

ToxB-B2 [3] = biological target: T3, ToxB-B2 (Clostridioides difficile, UniProt P18177); conditions: glycan 160 nM to 100 μM
T3 construct: gene tcdB

ToxA-B1 [4] = biological target: T4, ToxA-B1 (Clostridioides difficile, UniProt P16154); conditions: glycan 160 nM to 100 μM
T4 construct: gene tcdA

ToxB-B2 [5] = biological target: T3, ToxB-B2; test: biochemical
ToxA-B1 [6] = biological target: T4, ToxA-B1; test: biochemical
ToxA-B3 [7] = biological target: T2, ToxA-B3; test: biochemical
ToxB-GT [8] = biological target: T1, ToxB-GT; test: biochemical
[9] = read-out: Protein binding (KD)^a / ToxA-B3
[10] = read-out: Protein binding (KD)^a / ToxB-B2
[11] = read-out: Protein binding (KD)^a / ToxA-B1

Compound	Kd (ToxB-GT [1])	Kd (ToxA-B3 [2]; [9])	Kd (ToxB-B2 [3]; [10])	Kd (ToxA-B1 [4]; [11])	also measured
C[C@@H]1O[C@@H](O[C@H]2[C@H](O[C@H]3[C@H](O)[C@@H](O)C(O)O[C@@H]3CO)O[C@H](CO)[C@H](O)[C@@H]2O[C@H]2O[C@H](CO)[C@H](O)[C@H](O)[C@H]2O)[C@@H](O)[C@H](O)[C@@H]1O (some centres unmarked) [Blood group B]	> 100 µM	14.4 ± 3.2 µM	42.9 ± 59.1 µM	11.4 ± 1.08 µM	
CC(=O)N[C@H]1[C@H](O[C@H]2[C@@H](O)[C@@H](CO)OC(O)[C@@H]2O)O[C@H](CO)[C@@H](O[C@@H]2O[C@@H](C)[C@@H](O)[C@@H](O)[C@@H]2O)[C@@H]1O[C@@H]1O[C@H](CO)[C@H](O)[C@H](O)[C@H]1O (some centres unmarked) [Lewis A]	> 100 µM	1.65 ± 0.62 µM	0.579 ± 0.037 µM	3.38 ± 0.95 µM	
CC(=O)N[C@H]1[C@H](O[C@H]2[C@@H](O)[C@@H](CO)OC(O)[C@@H]2O)O[C@H](CO)[C@@H](O[C@@H]2O[C@@H](C)[C@@H](O)[C@@H](O)[C@@H]2O)[C@@H]1O[C@@H]1O[C@H](CO)[C@H](O)[C@H](O)[C@H]1O[C@@H]1O[C@@H](C)[C@@H](O)[C@@H](O)[C@@H]1O (some centres unmarked) [Lewis B]	> 100 µM		0.395 ± 0.029 µM		
CC(=O)N[C@H]1[C@H](O[C@H]2[C@@H](O)[C@@H](CO)OC(O)[C@@H]2O)O[C@H](CO)[C@@H](O[C@@H]2O[C@H](CO)[C@H](O)[C@H](O)[C@H]2O)[C@@H]1O[C@@H]1O[C@@H](C)[C@@H](O)[C@@H](O)[C@@H]1O (some centres unmarked) [Lewis X]	> 100 µM	16.5 ± 2.8 µM	0.501 ± 0.308 µM	18.9 ± 5.58 µM	
CO[C@H]1O[C@H](CO)[C@@H](O)[C@H](O)[C@@H]1O [α-Methyl-mannose]					Kd (ToxB-B2 [5]): 0.315 ± 0.103 µM; Kd (ToxA-B1 [6]): > 100 µM; Kd (ToxA-B3 [7]): > 100 µM; Kd (ToxB-GT [8]): > 100 µM
Blood group A	> 100 µM	0.0614 ± 0.0296 µM	0.0291 ± 0.0075 µM	1.53 ± 0.6 µM	
Blood group H	> 100 µM		0.428 ± 0.008 µM	1.22 ± 0.49 µM	Kd (ToxA-B3 [2]): > 100 µM
Lewis Y	> 100 µM	55.5 ± 28.8 µM	8 ± 0.74 µM	12.7 ± 2.47 µM	
Man5	> 100 µM				Kd (ToxA-B3 [2]): > 100 µM; Kd (ToxB-B2 [3]): > 100 µM; Kd (ToxA-B1 [4]): > 100 µM
Sialyl-Lewis A	> 100 µM	72.1 ± 31.8 µM	2.39 ± 0.68 µM	71.8 ± 27.1 µM	
